In patent publication US8691820B2, “CDK inhibitors” (Curis, Inc., priority 2008, dated 2014):

Legend:
CDK4 = CDK4 (Homo sapiens, UniProt P11802); assay: CDK4 kinase inhibition (Table B); assay type: biochemical
CDK1 = CDK1 (Homo sapiens, UniProt P06493); assay: CDK1 kinase inhibition (Table B); assay type: biochemical
CDK9 = CDK9 (Homo sapiens, UniProt P50750); assay: CDK9 kinase inhibition (Table B); assay type: biochemical
CDK2/cyclinA = biological target: T1, CDK2/cyclinA (Homo sapiens, UniProt P24941); assay: CDK2 kinase assay (33P-ATP, Histone H1 substrate); assay type: biochemical; conditions: 1 μM ATP, 5 μM Histon H1, 2 hours at room temperature
T1 construct: C-terminal 6His-tagged human full length cdk2 (MW=35 kDa); 6His (C); made in house; host or cells: Sf21 insect cells (baculovirus)
Source text: CDK2/cyclinA (Accession number for CDK2; EMBL M68520, for cyclin A; EMBL X51688): C-terminal 6His-tagged human full length cdk2 (MW=35 kDa), and N-terminal GST-tagged human full length cyclin A (MW=75 kDa) were expressed individually with baculovirus system in Sf21 insect cells. Recombinant cdk2 protein was purified with Ni2+/NTA agarose and then activated using CAK and repurified by Q Sepharose and Ni2+/NTA agarose. Recombinant cyclin A was purified using glutathione-agarose. They were then mixed in vitro to form protein complex. Recombinant protein complex was measured to be 67% in purity with SDS-PAGE and Coomassie blue staining. Specific activity of purified enzyme was measured to be 158 U/mg, where one unit of cdk2/cyclinA activity is defined as 1 nmol phosphate incorporated into 0.1 mg/ml histone H1 per minute at 30° C. with a final ATP concentration of […]. Enzyme was stored at a concentration of 0.1 mg/ml in 50 mM Tris/HCl pH7.5, 150 mM NaCl, 0.1 mM EGTA, 0.03% Brij-35, 270 mM sucrose, 1 mM benzamidine, 0.2 mM PMSF, 0.1% 2-mercaptoethanol. Frozen solution.
Histon H1 (Substrate for CDK2): Histone H1 (Sigma cat#H4524), was purified as a lysine rich fraction from calf thymus with 93% purity (MW=21.5 kDa). Purified protein was stored at a concentration of 20 mg/ml=930 μM in distilled water.
[…] (0.5 nmol) and 5 μM Histon H1 were mixed in the reaction buffer (20 mM HEPES (pH 7.5), 10 mM MgCl2, 1 mM EGTA, 0.02% Brij 35, 0.02 mg/ml BSA, 0.1 mM Na3VO4, 2 mM DTT) with final concentration of 1 μM ATP and 1% DMSO. The reaction was incubated for 2 hours at room temperature and conversion rate of ATP is about 4.5%. An equal volume of 25% TCA was added to stop the reaction and precipitate the labeled peptides. Precipitated proteins were trapped onto glass fiber B filterplates and excess […] p33 ATP was washed off. The plates were allowed to air-dry prior to the addition of 30 uL/well of Packard Microscint 20. The amount of incorporated isotope was measured using a Perkin Elmer TopCount plate reader. Different concentrations of compounds were added to reaction to assess the activity of compounds to inhibit […]. IC50 was calculated using Prism software with sigmoidal dose-response curve fitting.
The following TABLE B lists compounds representative of the invention and their activity in the CDK2 assay. In this assay, the following grading was used: I≧10 μM, 10 μM>II>1 μM, 1 μM>III>0.1 μM, and IV≦0.1 μM for IC50.

CDK3 = CDK3 (Homo sapiens, UniProt Q00526); assay: CDK3 kinase inhibition (Table B); assay type: biochemical
Sequence of CDK3 (Q00526 whole entry): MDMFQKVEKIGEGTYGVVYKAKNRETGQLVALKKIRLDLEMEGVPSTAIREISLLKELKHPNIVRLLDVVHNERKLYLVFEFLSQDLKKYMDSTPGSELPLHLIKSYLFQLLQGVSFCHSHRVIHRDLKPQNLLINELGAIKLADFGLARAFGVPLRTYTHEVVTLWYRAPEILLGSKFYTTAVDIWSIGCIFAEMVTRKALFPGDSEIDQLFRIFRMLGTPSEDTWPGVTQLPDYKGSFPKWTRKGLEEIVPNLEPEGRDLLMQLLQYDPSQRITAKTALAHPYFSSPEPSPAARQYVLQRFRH
Sequence of CDK3 (P24864 whole entry partner): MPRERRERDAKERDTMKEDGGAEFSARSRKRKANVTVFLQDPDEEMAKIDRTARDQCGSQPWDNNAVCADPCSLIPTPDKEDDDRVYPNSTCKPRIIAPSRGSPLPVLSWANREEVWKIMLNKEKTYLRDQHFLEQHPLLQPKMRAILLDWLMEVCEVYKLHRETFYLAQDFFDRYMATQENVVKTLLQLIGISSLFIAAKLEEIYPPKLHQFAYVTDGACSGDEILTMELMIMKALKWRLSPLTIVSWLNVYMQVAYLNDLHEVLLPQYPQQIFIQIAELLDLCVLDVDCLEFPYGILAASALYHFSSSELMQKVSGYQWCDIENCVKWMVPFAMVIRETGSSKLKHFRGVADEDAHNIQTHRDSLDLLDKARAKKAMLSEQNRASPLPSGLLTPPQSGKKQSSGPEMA

Sequence of CDK9 (P50750 whole entry): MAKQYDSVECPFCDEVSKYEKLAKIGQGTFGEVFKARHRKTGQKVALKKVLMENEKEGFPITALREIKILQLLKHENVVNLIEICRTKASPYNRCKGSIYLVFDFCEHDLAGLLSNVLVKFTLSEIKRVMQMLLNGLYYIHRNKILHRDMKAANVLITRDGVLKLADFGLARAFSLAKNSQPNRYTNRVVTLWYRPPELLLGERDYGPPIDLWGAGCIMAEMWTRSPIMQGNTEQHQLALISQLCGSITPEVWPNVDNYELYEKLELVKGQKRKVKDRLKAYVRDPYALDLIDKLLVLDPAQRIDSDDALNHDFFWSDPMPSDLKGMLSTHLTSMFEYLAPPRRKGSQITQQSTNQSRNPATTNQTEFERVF
Sequence of CDK9 (O60563 whole entry partner): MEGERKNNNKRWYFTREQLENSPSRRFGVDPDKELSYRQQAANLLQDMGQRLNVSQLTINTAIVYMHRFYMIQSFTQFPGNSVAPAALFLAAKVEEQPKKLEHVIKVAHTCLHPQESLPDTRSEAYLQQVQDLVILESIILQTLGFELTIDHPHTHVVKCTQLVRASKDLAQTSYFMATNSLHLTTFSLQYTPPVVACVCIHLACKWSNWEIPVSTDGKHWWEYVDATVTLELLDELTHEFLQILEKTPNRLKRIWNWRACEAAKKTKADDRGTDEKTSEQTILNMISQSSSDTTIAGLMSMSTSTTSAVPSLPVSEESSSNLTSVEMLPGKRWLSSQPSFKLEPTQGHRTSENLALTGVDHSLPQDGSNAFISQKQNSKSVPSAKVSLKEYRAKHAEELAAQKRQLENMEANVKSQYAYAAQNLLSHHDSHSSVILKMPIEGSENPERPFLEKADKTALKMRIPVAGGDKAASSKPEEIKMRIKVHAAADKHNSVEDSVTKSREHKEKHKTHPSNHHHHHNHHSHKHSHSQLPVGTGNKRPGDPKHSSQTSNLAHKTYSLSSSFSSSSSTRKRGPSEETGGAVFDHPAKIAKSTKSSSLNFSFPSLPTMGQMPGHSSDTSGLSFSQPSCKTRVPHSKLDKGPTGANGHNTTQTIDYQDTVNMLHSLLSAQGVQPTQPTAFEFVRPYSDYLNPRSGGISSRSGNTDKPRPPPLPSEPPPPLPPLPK
Sequence of CDK4 (P11802 whole entry): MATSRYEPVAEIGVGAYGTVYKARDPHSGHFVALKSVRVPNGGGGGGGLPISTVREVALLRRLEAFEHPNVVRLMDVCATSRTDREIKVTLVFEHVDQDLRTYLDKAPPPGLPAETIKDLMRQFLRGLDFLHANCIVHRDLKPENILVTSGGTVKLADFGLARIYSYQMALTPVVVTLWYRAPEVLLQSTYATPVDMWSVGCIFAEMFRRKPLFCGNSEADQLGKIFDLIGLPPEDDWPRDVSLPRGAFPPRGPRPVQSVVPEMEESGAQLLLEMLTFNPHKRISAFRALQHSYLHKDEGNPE
Sequence of CDK4 (P24385 whole entry partner): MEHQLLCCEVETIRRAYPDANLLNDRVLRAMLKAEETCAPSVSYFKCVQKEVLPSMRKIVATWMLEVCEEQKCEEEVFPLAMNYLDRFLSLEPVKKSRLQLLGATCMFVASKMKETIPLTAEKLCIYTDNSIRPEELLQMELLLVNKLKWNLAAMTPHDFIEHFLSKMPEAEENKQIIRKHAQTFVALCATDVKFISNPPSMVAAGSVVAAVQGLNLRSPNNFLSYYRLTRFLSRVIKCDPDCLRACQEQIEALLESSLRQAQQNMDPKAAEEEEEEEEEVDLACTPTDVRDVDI
Sequence of CDK1 (P06493 whole entry): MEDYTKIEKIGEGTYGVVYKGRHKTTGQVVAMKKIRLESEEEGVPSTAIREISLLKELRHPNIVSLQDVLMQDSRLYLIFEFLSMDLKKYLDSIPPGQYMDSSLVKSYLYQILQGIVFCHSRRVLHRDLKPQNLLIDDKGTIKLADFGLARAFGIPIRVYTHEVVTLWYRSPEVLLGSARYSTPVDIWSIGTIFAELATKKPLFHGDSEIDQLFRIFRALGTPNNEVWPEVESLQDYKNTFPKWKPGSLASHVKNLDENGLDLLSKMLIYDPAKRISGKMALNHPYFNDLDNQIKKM
Sequence of CDK1 (P14635 whole entry partner): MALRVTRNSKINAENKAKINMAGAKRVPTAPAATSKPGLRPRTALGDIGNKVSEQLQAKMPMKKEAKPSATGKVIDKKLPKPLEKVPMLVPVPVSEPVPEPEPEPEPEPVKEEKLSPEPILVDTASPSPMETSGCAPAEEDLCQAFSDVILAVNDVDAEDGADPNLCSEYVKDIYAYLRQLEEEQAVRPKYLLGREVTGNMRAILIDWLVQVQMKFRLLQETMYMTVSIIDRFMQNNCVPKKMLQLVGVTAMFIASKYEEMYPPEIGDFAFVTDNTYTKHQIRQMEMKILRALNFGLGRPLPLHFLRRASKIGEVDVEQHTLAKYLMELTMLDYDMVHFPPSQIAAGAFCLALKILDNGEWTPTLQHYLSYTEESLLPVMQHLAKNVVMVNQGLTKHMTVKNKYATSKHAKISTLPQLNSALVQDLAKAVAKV

| Structure (SMILES) | IC50 (CDK2/cyclinA) | other results |
| --- | --- | --- |
| CC(C)N(O)C(=O)CCCCCCC(=O)Nc1ncc(SCc2ncc(C(C)(C)C)o2)s1 [Compound 5, N^1-(5-((5-tert-butyloxazol-2-yl)methylthio)thiazol-2-yl)-N^8-hydroxy-N^8-isopropyloctanediamide] | ≤ 100 nM | IC50 (CDK4): 100 to 1000 nM; IC50 (CDK1): ≤ 100 nM; IC50 (CDK9): ≤ 100 nM; IC50 (CDK3): ≤ 100 nM |
| CC(C)(C)c1cnc(CSc2cnc(NC(=O)CCCCCCC(=O)Nc3ccccc3N)s2)o1 [Compound 18, N^1-(2-aminophenyl)-N^8-(5-((5-tert-butyloxazol-2-yl)methylthio)thiazol-2-yl)octanediamide] | ≤ 100 nM | IC50 (CDK4): 100 to 1000 nM; IC50 (CDK1): ≤ 100 nM; IC50 (CDK9): ≤ 100 nM; IC50 (CDK3): ≤ 100 nM |
| CC(C)(C)c1cnc(CSc2cnc(NC(=O)CCCCCCC(=O)Nc3cc(C(F)(F)F)ccc3N)s2)o1 [Compound 24, N^1-(2-amino-5-(trifluoromethyl)phenyl)-N^8-(5-((5-tert-butyloxazol-2-yl)methylthio)thiazol-2-yl)octanediamide] | ≤ 100 nM | melting point: 77 to 82 °C |
| CC(C)(C)c1cnc(CSc2cnc(NC(=O)CCCCCCC(=O)Nc3ccc(C(F)(F)F)cc3N)s2)o1 [Compound 25, N^1-(2-amino-4-(trifluoromethyl)phenyl)-N^8-(5-((5-tert-butyloxazol-2-yl)methylthio)thiazol-2-yl)octanediamide] | ≤ 100 nM | melting point: 114 to 116 °C |
| CN(O)C(=O)/C=C/c1ccc(C(=O)Nc2ncc(SCc3ncc(C(C)(C)C)o3)s2)cc1 [Compound 39, (E)-N-(5-((5-tert-butyloxazol-2-yl)methylthio)thiazol-2-yl)-4-(3-(hydroxy(methyl)amino)-3-oxoprop-1-enyl)benzamide] | 1000 to 10000 nM |  |
| CC(C)(C)c1cnc(CSc2cnc(NC(=O)CCCCCCC(=O)n3nnc4ccccc43)s2)o1 [Compound 40, 8-(1H-benzo[d][1,2,3]triazol-1-yl)-N-(5-((5-tert-butyloxazol-2-yl)methylthio)thiazol-2-yl)-8-oxooctanamide] | ≤ 100 nM |  |
| CC(C)(C)c1cnc(CSc2cnc(NC(=O)CCCCCCC(=O)Nc3n[nH]c4ccccc34)s2)o1 [Compound 41] | ≤ 100 nM |  |
| CC(C)(C)c1cnc(CSc2cnc(NC(=O)CCCCCCC(=O)Nc3cn[nH]c3)s2)o1 [Compound 42, N^1-(5-((5-tert-butyloxazol-2-yl)methylthio)thiazol-2-yl)-N^8-(1H-pyrazol-4-yl)octanediamide] | ≤ 100 nM |  |
| CC(C)(C)c1cnc(CSc2cnc(NC(=O)CCCCCCC(=O)n3ncc(-c4ccc(F)cc4)c3N)s2)o1 [Compound 44, 8-(5-amino-4-(4-fluorophenyl)-1H-pyrazol-1-yl)-N-(5-((5-tert-butyloxazol-2-yl)methylthio)thiazol-2-yl)-8-oxooctanamide] | ≤ 100 nM |  |
| CC(C)(C)c1cnc(CSc2cnc(NC(=O)CCCCCCC(=O)Nc3[nH]ncc3-c3ccc(F)cc3)s2)o1 [Compound 45] | ≤ 100 nM |  |
| CC(C)(C)c1cnc(CSc2cnc(NC(=O)CC3Nc4ccccc4NC3=O)s2)o1 (stereo not shown) [Compound 46, N-(5-((5-tert-butyloxazol-2-yl)methylthio)thiazol-2-yl)-2-(3-oxo-1,2,3,4-tetrahydroquinoxalin-2-yl)acetamide] | ≤ 100 nM |  |
| CC(C)(C)c1cnc(CSc2cnc(NC(=O)CCCCCCC(=O)Nc3nc4ccccc4[nH]3)s2)o1 [Compound 47] | ≤ 100 nM |  |
| CC(C)(C)c1cnc(CSc2cnc(NC(=O)CCCCCCC(=O)n3nc(N)c4ccccc43)s2)o1 [Compound 48] | ≤ 100 nM |  |
| CC(C)(C)c1cnc(CSc2cnc(NC(=O)CCCCCCC(=O)Nc3c[nH]c4ccccc34)s2)o1 [Compound 50] | ≤ 100 nM |  |
| CN1OC(=O)CC1c1ccc(C(=O)Nc2ncc(SCc3ncc(C(C)(C)C)o3)s2)cc1 (stereo not shown) [Compound 51, N-(5-((5-tert-butyloxazol-2-yl)methylthio)thiazol-2-yl)-4-(2-methyl-5-oxoisoxazolidin-3-yl)benzamide] | ≤ 100 nM |  |
| CC(C)(C)c1cnc(CSc2cnc(NC(=O)CCCCCCC(=O)Nc3cc(-c4cccs4)n[nH]3)s2)o1 [Compound 52] | ≤ 100 nM |  |
| CC(C)(C)c1cnc(CSc2cnc(NC(=O)Oc3ccc(OCCCC(=O)Nc4ccccc4N)cc3)s2)o1 [Compound 54, 4-(4-(2-Aminophenylamino)-4-oxobutoxy)phenyl 5-((5-tert-butyloxazol-2-yl)methylthio)thiazol-2-ylcarbamate] | ≤ 100 nM |  |
| CC(C)(C)c1cnc(CSc2cnc(NC(=O)Cc3cccc(OCCCC(=O)Nc4ccccc4N)c3)s2)o1 [Compound 56, N-(2-aminophenyl)-4-(3-(2-(5-((5-tert-butyloxazol-2-yl)methylthio)thiazol-2-ylamino)-2-oxoethyl)phenoxy)butanamide] | ≤ 100 nM |  |
| CC(C(=O)Nc1ncc(SCc2ncc(C(C)(C)C)o2)s1)c1ccc(OCCCC(=O)Nc2ccccc2N)cc1 (stereo not shown) [Compound 57, N-(2-aminophenyl)-4-(4-(1-(5-((5-tert-butyloxazol-2-yl)methylthio)thiazol-2-ylamino)-1-oxopropan-2-yl)phenoxy)butanamide] | ≤ 100 nM |  |
| CC(Sc1cnc(NC(=O)Cc2ccc(OCCCC(=O)Nc3ccccc3N)cc2)s1)c1ncc(C(C)(C)C)o1 (stereo not shown) [Compound 58, N-(2-aminophenyl)-4-(4-(2-(5-(1-(5-tert-butyloxazol-2-yl)ethylthio)thiazol-2-ylamino)-2-oxoethyl)phenoxy)butanamide] | ≤ 100 nM |  |
| CC(C)(C)c1cnc(CSc2cnc(NC(=O)Cc3ccc(OCCCC(=O)Nc4ccc(F)cc4N)cc3)s2)o1 [Compound 59, N-(2-amino-4-fluorophenyl)-4-(4-(2-(5-((5-tert-butyloxazol-2-yl)methylthio)thiazol-2-ylamino)-2-oxoethyl)phenoxy)butanamide] | ≤ 100 nM |  |
| CC(C)(C)c1cnc(CSc2cnc(NC(=O)Cc3ccc(OCCCC(=O)Nc4cc(F)ccc4N)cc3)s2)o1 [Compound 60, N-(2-amino-5-fluorophenyl)-4-(4-(2-(5-((5-tert-butyloxazol-2-yl)methylthio)thiazol-2-ylamino)-2-oxoethyl)phenoxy)butanamide] | ≤ 100 nM |  |
| CC(C)(C)c1cnc(CSc2cnc(NC(=O)Cc3ccc(OCCCC(=O)Nc4ccccc4)cc3)s2)o1 [Compound 61, 4-(4-(2-(5-((5-tert-butyloxazol-2-yl)methylthio)thiazol-2-ylamino)-2-oxoethyl)phenoxy)-N-phenylbutanamide] | ≤ 100 nM |  |
| CC(C)(C)c1cnc(CSc2cnc(NC(=O)Cc3ccc(OCCCC(=O)Nc4ccncc4)cc3)s2)o1 [Compound 62, 4-(4-(2-(5-((5-tert-butyloxazol-2-yl)methylthio)thiazol-2-ylamino)-2-oxoethyl)phenoxy)-N-(pyridin-4-yl)butanamide] | ≤ 100 nM |  |
| CC(C)(C)c1cnc(CSc2cnc(NC(=O)Cc3ccc(OCCCC(=O)Nc4cccnc4)cc3)s2)o1 [Compound 63, 4-(4-(2-(5-((5-tert-butyloxazol-2-yl)methylthio)thiazol-2-ylamino)-2-oxoethyl)phenoxy)-N-(pyridin-3-yl)butanamide] | ≤ 100 nM |  |
| CC(C)(C)c1cnc(CSc2cnc(NC(=O)Cc3ccc(OCCCC(=O)Nc4ccccn4)cc3)s2)o1 [Compound 64, 4-(4-(2-(5-((5-tert-butyloxazol-2-yl)methylthio)thiazol-2-ylamino)-2-oxoethyl)phenoxy)-N-(pyridin-2-yl)butanamide] | ≤ 100 nM | melting point: 126 to 129 °C |
